Reference: patent US7273848B2, “Apolipoprotein A-I agonists and their use to treat dyslipidemic disorders” (priority 1997, dated 2007)
Non-standard residues stand in square brackets, D forms with d. Residues, ends and D or L forms follow the SMILES beside them. Aib = CC(C)(N)C(=O)O

What was measured:
[1] = target: T1, LCAT (purified from human plasma) (Homo sapiens, UniProt P04180); assay: LCAT activation assay; type: biochemical; settings: LCAT activation as compared with native human ApoA-I (= 100%), equivalent masses
T1 construct: from tissue; host or cells: human plasma
T1 sequence (P04180 25-440): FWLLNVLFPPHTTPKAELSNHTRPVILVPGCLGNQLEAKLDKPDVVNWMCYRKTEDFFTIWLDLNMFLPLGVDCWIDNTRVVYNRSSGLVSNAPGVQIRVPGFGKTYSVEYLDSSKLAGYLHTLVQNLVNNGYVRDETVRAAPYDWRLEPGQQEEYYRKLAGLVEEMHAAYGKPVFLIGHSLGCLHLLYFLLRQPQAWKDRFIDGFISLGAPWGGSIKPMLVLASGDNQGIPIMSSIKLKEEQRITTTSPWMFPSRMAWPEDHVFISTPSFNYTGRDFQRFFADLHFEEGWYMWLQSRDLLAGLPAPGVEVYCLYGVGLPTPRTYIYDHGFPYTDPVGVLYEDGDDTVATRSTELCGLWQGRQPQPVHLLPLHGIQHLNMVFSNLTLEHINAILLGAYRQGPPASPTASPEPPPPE
Procedure, shortened: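 Activity was expressed as percentage conversion of radiolabelled cholesterol to cholesteryl ester, normalised to native ApoA-I as 100%. LCAT purified from human plasma was added to peptide-preincubated EPC or POPC/cholesterol (20:1) small unilamellar vesicles at pH 7.4. Specific activity is the peptide concentration reaching the conversion plateau at a fixed timepoint.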

[2] = Circular dichroism helicity determination; type: physicochemical; settings: percent helicity; for He (%) TFE: 5 μM peptide, 90% vol TFE; for He (%) TFE / He (%) SUVs: 37° C.; for He (%) free: unbound peptide 5 μM in 5 mM phosphate buffer, pH 7.4, 37° C.; for He (%) SUVs: peptide-SUV complexes (20:1 EPC:Chol., Ri=30 and Ri=50); for He (%) mics: peptide-micelle complexes, Ri=100, 37° C.
Procedure, shortened: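 Far-UV CD (190–260 nm) at 37° C on 5 μM peptide in 5 mM phosphate pH 7.4, free, with EPC:Chol 20:1 SUVs (Ri 30 or 50), lysophosphatidylcholine micelles (Ri 100) or 90% TFE. Spectra converted to molar ellipticity per residue; helicity from 222 nm ellipticity or CONTIN fitting to reference spectra, ±5%.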

| SMILES | ACTIVITY (%) LCAT [1] [%] | He (%) TFE [2] [%] | He (%) free [2] [%] | He (%) SUVs [2] [%] | He (%) mics [2] [%] |
| --- | --- | --- | --- | --- | --- |
| CC(C)C[C@H](NC(=O)[C@H](C)NC(=O)[C@H](CCC(=O)O)NC(=O)[C@H](CC(C)C)NC(=O)C(C)(C)NC(=O)[C@H](CCC(=O)O)NC(=O)[C@H](CC(N)=O)NC(=O)[C@H](CC(C)C)NC(=O)[C@H](CC(C)C)NC(=O)[C@H](CCC(=O)O)NC(=O)[C@H](CCCNC(=N)N)NC(=O)[C@H](Cc1c[nH]c2ccccc12)NC(=O)[C@H](CC(C)C)NC(=O)[C@H](CC(=O)O)NC(=O)[C@H](CC(C)C)NC(=O)[C@@H](NC(=O)[C@@H]1CCCN1)C(C)C)C(=O)N[C@@H](CCCCN)C(=O)N[C@@H](CCC(N)=O)C(=O)N[C@@H](CCCCN)C(=O)N[C@@H](CC(C)C)C(=O)N[C@@H](CCCCN)C(=O)O [compound 41, PVLDLWRELLNEXLEALKQKLK] (H-PVLDLWRELLNE[Aib]LEALKQKLK-OH) | 25 | 69 | 53 | 85 | 73 |
| CC(C)C[C@H](NC(=O)[C@H](C)NC(=O)[C@H](CCC(=O)O)NC(=O)[C@H](CC(C)C)NC(=O)C(C)(C)NC(=O)[C@H](CCC(=O)O)NC(=O)[C@H](CC(N)=O)NC(=O)[C@H](CC(C)C)NC(=O)[C@H](CCCCN)NC(=O)[C@H](CCC(=O)O)NC(=O)[C@H](CCCNC(=N)N)NC(=O)[C@H](Cc1ccccc1)NC(=O)[C@H](CC(C)C)NC(=O)[C@H](CC(=O)O)NC(=O)[C@H](CC(C)C)NC(=O)[C@@H](NC(=O)[C@@H]1CCCN1)C(C)C)C(=O)N[C@@H](CCCCN)C(=O)N[C@@H](CCC(N)=O)C(=O)N[C@@H](CCCCN)C(=O)N[C@@H](CC(C)C)C(=O)N[C@@H](CCCCN)C(=O)O [compound 46, PVLDLFREKLNEXLEALKQKLK] (H-PVLDLFREKLNE[Aib]LEALKQKLK-OH) | 23 | 85 | 30 | 58 | 86 |
| CC(C)C[C@H](NC(=O)[C@H](C)NC(=O)[C@H](CCC(=O)O)NC(=O)[C@H](CC(C)C)NC(=O)C(C)(C)NC(=O)[C@H](CCC(=O)O)NC(=O)[C@H](CC(N)=O)NC(=O)[C@H](CC(C)C)NC(=O)[C@H](CCCCN)NC(=O)[C@H](CCC(=O)O)NC(=O)[C@H](CCCNC(=N)N)NC(=O)[C@H](Cc1c[nH]c2ccccc12)NC(=O)[C@H](CCC(=O)O)NC(=O)[C@H](CC(=O)O)NC(=O)[C@H](CC(C)C)NC(=O)[C@@H](NC(=O)[C@@H]1CCCN1)C(C)C)C(=O)N[C@@H](CCCCN)C(=O)N[C@@H](CCC(N)=O)C(=O)N[C@@H](CCCCN)C(=O)N[C@@H](CC(C)C)C(=O)N[C@@H](CCCCN)C(=O)O [compound 62, PVLDEWREKLNEXLEALKQKLK] (H-PVLDEWREKLNE[Aib]LEALKQKLK-OH) | 16 |  | 15 | 43 | 85 |
| CC(C)C[C@H](NC(=O)[C@H](C)NC(=O)[C@H](CCC(=O)O)NC(=O)[C@H](CC(C)C)NC(=O)C(C)(C)NC(=O)[C@H](CCC(=O)O)NC(=O)[C@H](Cc1ccc(O)cc1)NC(=O)[C@H](CC(C)C)NC(=O)[C@H](CC(C)C)NC(=O)[C@H](CCC(=O)O)NC(=O)[C@H](CCCNC(=N)N)NC(=O)[C@H](Cc1ccccc1)NC(=O)[C@H](CCC(=O)O)NC(=O)[C@H](CC(=O)O)NC(=O)[C@H](CC(C)C)NC(=O)[C@@H](NC(=O)[C@@H]1CCCN1)C(C)C)C(=O)N[C@@H](CCCCN)C(=O)N[C@@H](CCC(N)=O)C(=O)N[C@@H](CCCCN)C(=O)N[C@@H](CC(C)C)C(=O)N[C@@H](CCCCN)C(=O)O [compound 70, PVLDEFRELLYEXLEALKQKLK] (H-PVLDEFRELLYE[Aib]LEALKQKLK-OH) | 12 | 66 | 27 | 33 | 78 |

Continued, values first:

| ACTIVITY (%) LCAT [1] [%] | He (%) TFE [2] [%] | He (%) free [2] [%] | He (%) SUVs [2] [%] | He (%) mics [2] [%] | SMILES |
| --- | --- | --- | --- | --- | --- |
| 25 | 76 | 15 | 27 | 74 | CC(C)C[C@H](NC(=O)[C@H](C)NC(=O)[C@H](CCC(=O)O)NC(=O)[C@H](Cc1c[nH]c2ccccc12)NC(=O)C(C)(C)NC(=O)[C@H](CCC(=O)O)NC(=O)[C@H](CC(N)=O)NC(=O)[C@H](CC(C)C)NC(=O)[C@H](CCCCN)NC(=O)[C@H](CCC(=O)O)NC(=O)[C@H](CCCNC(=N)N)NC(=O)[C@H](Cc1ccccc1)NC(=O)[C@H](CCC(=O)O)NC(=O)[C@H](CC(=O)O)NC(=O)[C@H](CC(C)C)NC(=O)[C@@H](NC(=O)[C@@H]1CCCN1)C(C)C)C(=O)N[C@@H](CCCCN)C(=O)N[C@@H](CCC(N)=O)C(=O)N[C@@H](CCCCN)C(=O)N[C@@H](CC(C)C)C(=O)N[C@@H](CCCCN)C(=O)O [compound 42, PVLDEFREKLNEXWEALKQKLK] (H-PVLDEFREKLNE[Aib]WEALKQKLK-OH) |
| 25 |  | 20 |  | 86 | CC(C)C[C@@H](NC(=O)[C@@H](C)NC(=O)[C@@H](CCC(=O)O)NC(=O)[C@@H](CC(C)C)NC(=O)C(C)(C)NC(=O)[C@@H](CCC(=O)O)NC(=O)[C@@H](CC(N)=O)NC(=O)[C@@H](CC(C)C)NC(=O)[C@@H](CCCCN)NC(=O)[C@@H](CCC(=O)O)NC(=O)[C@@H](CCCNC(=N)N)NC(=O)[C@@H](Cc1ccccc1)NC(=O)[C@@H](CCC(=O)O)NC(=O)[C@@H](CC(=O)O)NC(=O)[C@@H](CC(C)C)NC(=O)[C@H](NC(=O)[C@H]1CCCN1)C(C)C)C(=O)N[C@H](CCCCN)C(=O)N[C@H](CCC(N)=O)C(=O)N[C@H](CCCCN)C(=O)N[C@H](CC(C)C)C(=O)N[C@H](CCCCN)C(=O)O [compound 44, pvldefreklneXlealkqklk] (H-[dP][dV][dL][dD][dE][dF][dR][dE][dK][dL][dN][dE][Aib][dL][dE][dA][dL][dK][dQ][dK][dL][dK]-OH) |
| 24 | 86 | 24 | 25 | 84 | CC(C)C[C@H](NC(=O)[C@H](C)NC(=O)[C@H](CCC(=O)O)NC(=O)[C@H](CC(C)C)NC(=O)C(C)(C)NC(=O)[C@H](CCC(=O)O)NC(=O)[C@H](CC(N)=O)NC(=O)[C@H](CC(C)C)NC(=O)[C@H](CCCCN)NC(=O)[C@H](CCC(=O)O)NC(=O)[C@H](CCCNC(=N)N)NC(=O)[C@H](Cc1ccccc1)NC(=O)[C@H](CCC(=O)O)NC(=O)[C@H](CC(=O)O)NC(=O)[C@H](CC(C)C)NC(=O)[C@@H](NC(=O)[C@@H]1CCCN1)C(C)C)C(=O)N[C@@H](CCCCN)C(=O)N[C@@H](CCC(N)=O)C(=O)N[C@@H](CCCCN)C(=O)N[C@@H](CC(C)C)C(=O)N[C@@H](CCCCN)C(=O)O [compound 45, PVLDEFREKLNEXLEALKQKLK] (H-PVLDEFREKLNE[Aib]LEALKQKLK-OH) |
| 21 | 76 | 68 | 89 | 84 | CC(C)C[C@H](NC(=O)[C@H](C)NC(=O)[C@H](CCC(=O)O)NC(=O)[C@H](CC(C)C)NC(=O)C(C)(C)NC(=O)[C@H](CCC(=O)O)NC(=O)[C@H](Cc1c[nH]c2ccccc12)NC(=O)[C@H](CC(C)C)NC(=O)[C@H](CC(C)C)NC(=O)[C@H](CCC(=O)O)NC(=O)[C@H](CCCNC(=N)N)NC(=O)[C@H](Cc1ccccc1)NC(=O)[C@H](CC(C)C)NC(=O)[C@H](CC(=O)O)NC(=O)[C@H](CC(C)C)NC(=O)[C@@H](NC(=O)[C@@H]1CCCN1)C(C)C)C(=O)N[C@@H](CCCCN)C(=O)N[C@@H](CCC(N)=O)C(=O)N[C@@H](CCCCN)C(=O)N[C@@H](CC(C)C)C(=O)N[C@@H](CCCCN)C(=O)O [compound 50, PVLDLFRELLWEXLEALKQKLK] (H-PVLDLFRELLWE[Aib]LEALKQKLK-OH) |
| 20 | 73 | 63 | 81 | 82 | CC(C)C[C@H](NC(=O)[C@H](C)NC(=O)[C@H](CCC(=O)O)NC(=O)[C@H](CC(C)C)NC(=O)C(C)(C)NC(=O)[C@H](CCC(=O)O)NC(=O)[C@H](CC(N)=O)NC(=O)[C@H](CC(C)C)NC(=O)[C@H](CC(C)C)NC(=O)[C@H](CCC(=O)O)NC(=O)[C@H](Cc1c[nH]c2ccccc12)NC(=O)[C@H](Cc1ccccc1)NC(=O)[C@H](CC(C)C)NC(=O)[C@H](CC(=O)O)NC(=O)[C@H](CC(C)C)NC(=O)[C@@H](NC(=O)[C@@H]1CCCN1)C(C)C)C(=O)N[C@@H](CCCCN)C(=O)N[C@@H](CCC(N)=O)C(=O)N[C@@H](CCCCN)C(=O)N[C@@H](CC(C)C)C(=O)N[C@@H](CCCCN)C(=O)O [compound 51, PVLDLFWELLNEXLEALKQKLK] (H-PVLDLFWELLNE[Aib]LEALKQKLK-OH) |
